Experimental data reported in patent US9695155B2, “Herbicidal substituted pyrimidinyloxy benzene compounds” (E. I. DU PONT DE NEMOURS AND COMPANY, priority 2013, dated 2017).

Columns and labels:
deadnettle [1] = assay: Test D postemergence; type: in vivo, Lamium amplexicaule; settings: Lamium amplexicaule, post-emergence
In short: (§1)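 In a controlled growth environment, treated and control plants were held 7 to 21 days, then compared visually. Damage was scored 0–100, where 100 means complete control. Sprays contained surfactant in a non-phytotoxic solvent; post-applied plants were at the 1- to 4-leaf stage.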

lambsquarters [2] = assay: Test D postemergence; type: in vivo, Chenopodium album; settings: Chenopodium album, post-emergence
In short: as §1

wild mustard = assay: Test D postemergence; type: in vivo, Sinapis arvensis; settings: Brassica, post-emergence
Description: (§2) Seeds of plant species selected from bluegrass (annual bluegrass, Poa annua), blackgrass (Alopecurus myosuroides), canarygrass (littleseed canarygrass, Phalaris minor), chickweed (common chickweed, Stellaria media), galium (catchweed bedstraw, Galium aparine), bromegrass, downy (downy bromegrass, Bromus tectorum), field poppy (Papaver rhoeas), field violet (Viola arvensis), green foxtail (Setaria viridis), deadnettle (henbit deadnettle, Lamium amplexicaule), Italian ryegrass (Lolium multiflorum), kochia (Kochia scoparia), lambsquarters (Chenopodium album), oilseed rape (Brassica napus), pigweed (Amaranthus retroflexus), chamomile (scentless chamomile, Matricaria inodora), Russian thistle (Salsola kali), speedwell (bird's-eye speedwell, Veronica persica), spring barley (Hordeum vulgare), spring wheat (Triticum aestivum), wild buckwheat (Polygonum convolvulus), wild mustard (Sinapis arvensis), wild oat (Avena fatua), wild radish (Raphanus raphanistrum), windgrass (Apera spica-venti), winter barley (Hordeum vulgare), and winter wheat (Triticum aestivum) were planted into a silt loam soil and treated preemergence with test chemicals formulated in a non-phytotoxic solvent mixture which included a surfactant.
(§3) At the same time, these species were planted in pots containing Redi-Earth® planting medium (Scotts Company, 14111 Scottslawn Road, Marysville, Ohio 43041) comprising spaghnum peat moss, vermiculite, wetting agent and starter nutrients and treated with postemergence applications of the test chemicals formulated in the same manner. Plants ranged in height from 2 to 18 cm (1- to 4-leaf stage). Treated plants and controls were maintained in a controlled growth environment for 7 to 21 days after which time all species were compared to controls and visually evaluated. Plant response ratings, summarized in Table D, are based on a scale of 0 to 100 where 0 is no effect and 100 is complete control. A dash (-) response means no test result.

deadnettle [3] = assay: Test D preemergence; type: in vivo, Lamium amplexicaule; settings: Lamium amplexicaule, pre-emergence
Description: as §2, §3

kochia = assay: Test D preemergence; type: in vivo, Kochia scoparia; settings: Bassia scoparia, pre-emergence
In short: as §1

blackgrass = assay: Test D preemergence; type: in vivo, Alopecurus myosuroides; settings: Alopecurus myosuroides, pre-emergence
In short: as §1

chickweed = assay: Test D postemergence; type: in vivo, Stellaria media; settings: Stellaria media, post-emergence
Description: as §2, §3

wild buckwheat = assay: Test D preemergence; type: in vivo, Polygonum convolvulus; settings: Fallopia convolvulus, pre-emergence
Description: as §2, §3

galium = assay: Test D postemergence; type: in vivo, Galium aparine; settings: Galium, post-emergence
Description: as §2, §3

speedwell = assay: Test D postemergence; type: in vivo, Veronica persica; settings: Veronica persica, post-emergence
In short: as §1

lambsquarters [4] = assay: Test D preemergence; type: in vivo, Chenopodium album; settings: Chenopodium album, pre-emergence
Description: as §2, §3

SMILES: Fc1cccc(Oc2ncc(Cl)cn2)c1-n1cc(Br)cn1 [Compound 178, 2-[2-(4-bromo-1H-pyrazol-1-yl)-3-fluorophenoxy]-5-chloropyrimidine]
- pest or weed control at 16 g/ha (deadnettle [1]; 16 g ai/ha, scale 0-100, read-out: Plant response rating, Deadnettle): 40%
- pest or weed control at 31 g/ha (deadnettle [1]; 31 g ai/ha, scale 0 to 100 (0 no effect, 100 complete control), read-out: Plant response rating, Deadnettle): 45%
- pest or weed control at 62 g/ha (deadnettle [1]; 62 g ai/ha, scale 0 to 100 (0 no effect, 100 complete control), read-out: Plant response rating, Deadnettle): 50%
- pest or weed control at 125 g/ha (deadnettle [1]; 125 g ai/ha, scale 0 to 100 (0 no effect, 100 complete control), read-out: Plant response rating, Deadnettle): 65%
- pest or weed control at 16 g/ha (lambsquarters [2]; 16 g ai/ha, scale 0-100, read-out: Plant response rating, Lambsquarters): 65%
- pest or weed control at 31 g/ha (lambsquarters [2]; 31 g ai/ha, scale 0 to 100 (0 no effect, 100 complete control), read-out: Plant response rating, Lambsquarters): 70%
- pest or weed control at 62 g/ha (lambsquarters [2]; 62 g ai/ha, scale 0 to 100 (0 no effect, 100 complete control), read-out: Plant response rating, Lambsquarters): 75%
- pest or weed control at 125 g/ha (lambsquarters [2]; 125 g ai/ha, scale 0 to 100 (0 no effect, 100 complete control), read-out: Plant response rating, Lambsquarters): 85%
- pest or weed control at 16 g/ha (wild mustard; 16 g ai/ha, scale 0-100, read-out: Plant response rating, Mustard, Wild): 70%
- pest or weed control at 31 g/ha (wild mustard; 31 g ai/ha, scale 0 to 100 (0 no effect, 100 complete control), read-out: Plant response rating, Mustard, Wild): 75%
- pest or weed control at 62 g/ha (wild mustard; 62 g ai/ha, scale 0 to 100 (0 no effect, 100 complete control), read-out: Plant response rating, Mustard, Wild): 75%
- pest or weed control at 125 g/ha (wild mustard; 125 g ai/ha, scale 0 to 100 (0 no effect, 100 complete control), read-out: Plant response rating, Mustard, Wild): 100%
- pest or weed control at 16 g/ha (deadnettle [3]; 16 g ai/ha, scale 0 (no effect) to 100 (complete control), read-out: Plant response rating, Deadnettle): 50%
- pest or weed control at 31 g/ha (deadnettle [3]; 31 g ai/ha, scale 0-100, read-out: Plant response rating, Deadnettle): 60%
- pest or weed control at 62 g/ha (deadnettle [3]; 62 g ai/ha, scale 0-100, read-out: Plant response rating, Deadnettle): 75%
- pest or weed control at 125 g/ha (deadnettle [3]; 125 g ai/ha, scale 0-100, read-out: Plant response rating, Deadnettle): 100%
- pest or weed control at 16 g/ha (kochia; 16 g ai/ha, scale 0 (no effect) to 100 (complete control), read-out: Plant response rating, Kochia): 0%
- pest or weed control at 31 g/ha (kochia; 31 g ai/ha, scale 0-100, read-out: Plant response rating, Kochia): 35%
- pest or weed control at 62 g/ha (kochia; 62 g ai/ha, scale 0-100, read-out: Plant response rating, Kochia): 85%
- pest or weed control at 125 g/ha (kochia; 125 g ai/ha, scale 0-100, read-out: Plant response rating, Kochia): 100%
- pest or weed control at 16 g/ha (blackgrass; 16 g ai/ha, scale 0 (no effect) to 100 (complete control), read-out: Plant response rating, Blackgrass): 5%
- pest or weed control at 31 g/ha (blackgrass; 31 g ai/ha, scale 0-100, read-out: Plant response rating, Blackgrass): 10%
- pest or weed control at 62 g/ha (blackgrass; 62 g ai/ha, scale 0-100, read-out: Plant response rating, Blackgrass): 35%
- pest or weed control at 125 g/ha (blackgrass; 125 g ai/ha, scale 0-100, read-out: Plant response rating, Blackgrass): 85%
- pest or weed control at 16 g/ha (chickweed; 16 g ai/ha, scale 0-100, read-out: Plant response rating, Chickweed): 55%
- pest or weed control at 31 g/ha (chickweed; 31 g ai/ha, scale 0 to 100 (0 no effect, 100 complete control), read-out: Plant response rating, Chickweed): 60%
- pest or weed control at 62 g/ha (chickweed; 62 g ai/ha, scale 0 to 100 (0 no effect, 100 complete control), read-out: Plant response rating, Chickweed): 65%
- pest or weed control at 125 g/ha (chickweed; 125 g ai/ha, scale 0 to 100 (0 no effect, 100 complete control), read-out: Plant response rating, Chickweed): 75%
- pest or weed control at 16 g/ha (wild buckwheat; 16 g ai/ha, scale 0 (no effect) to 100 (complete control), read-out: Plant response rating, Buckwheat, Wild): 15%
- pest or weed control at 31 g/ha (wild buckwheat; 31 g ai/ha, scale 0-100, read-out: Plant response rating, Buckwheat, Wild): 55%
- pest or weed control at 62 g/ha (wild buckwheat; 62 g ai/ha, scale 0-100, read-out: Plant response rating, Buckwheat, Wild): 100%
- pest or weed control at 125 g/ha (wild buckwheat; 125 g ai/ha, scale 0-100, read-out: Plant response rating, Buckwheat, Wild): 100%
- pest or weed control at 16 g/ha (galium; 16 g ai/ha, scale 0-100, read-out: Plant response rating, Galium): 75%
- pest or weed control at 31 g/ha (galium; 31 g ai/ha, scale 0 to 100 (0 no effect, 100 complete control), read-out: Plant response rating, Galium): 75%
- pest or weed control at 62 g/ha (galium; 62 g ai/ha, scale 0 to 100 (0 no effect, 100 complete control), read-out: Plant response rating, Galium): 75%
- pest or weed control at 125 g/ha (galium; 125 g ai/ha, scale 0 to 100 (0 no effect, 100 complete control), read-out: Plant response rating, Galium): 80%
- pest or weed control at 16 g/ha (speedwell; 16 g ai/ha, scale 0-100, read-out: Plant response rating, Speedwell): 70%
- pest or weed control at 31 g/ha (speedwell; 31 g ai/ha, scale 0 to 100 (0 no effect, 100 complete control), read-out: Plant response rating, Speedwell): 80%
- pest or weed control at 62 g/ha (speedwell; 62 g ai/ha, scale 0 to 100 (0 no effect, 100 complete control), read-out: Plant response rating, Speedwell): 100%
- pest or weed control at 125 g/ha (speedwell; 125 g ai/ha, scale 0 to 100 (0 no effect, 100 complete control), read-out: Plant response rating, Speedwell): 100%
- pest or weed control at 16 g/ha (lambsquarters [4]; 16 g ai/ha, scale 0 (no effect) to 100 (complete control), read-out: Plant response rating, Lambsquarters): 20%
- pest or weed control at 31 g/ha (lambsquarters [4]; 31 g ai/ha, scale 0-100, read-out: Plant response rating, Lambsquarters): 70%
- pest or weed control at 62 g/ha (lambsquarters [4]; 62 g ai/ha, scale 0-100, read-out: Plant response rating, Lambsquarters): 80%
- pest or weed control at 125 g/ha (lambsquarters [4]; 125 g ai/ha, scale 0-100, read-out: Plant response rating, Lambsquarters): 85%
